What was measured:
[1] = tested on: carbon tetrachloride-induced acute liver damage (plasma GOT and GPT); assay: cytoprotective activity in carbon tetrachloride-induced acute liver damage in rats; assay type: in vivo, rat; conditions: for minimal effective dose: Rattus norvegicus, sc, rats, dosed three times (0, 6, 12 hrs), read-out: Inhibiting activity of CCl4 induced liver damage, minimum effective dose; for activity in the inhibition of liver damage induced by carbon tetrachloride compared with compounds (d) and (e): words
Method: (i) cytoprotective activity in carbon tetrachloride-induced acute liver damage in rats.
(i) Inhibitory activity on liver damage induced by carbon tetrachloride.
A solution of carbon tetrachloride (2000 μl) dissolved in olive oil (10 ml) was administered to Wistar male rates (body weight 190-220 g) at a rate of 2000 μl/kg animal body weight by intraperitoneal injection.
A solution of a compound of the present invention or of one of the comparison compounds in olive oil (2 ml/kg animal body weight) was administered three times, at the same time as, and then 6 hrs and 12 hrs after, the dosage of carbon tetrachloride, and blood was collected twice after 24 hrs and 48 hrs after the first dosage. The blood was centrifuged and plasma GOT (glutamic oxalacetic transaminase) activity and plasma GPT (glutamic pyruvic transaminase) activity were measured.

blood pressure = assay: hypotensive activity in the anesthetized dog, intravenous administration; assay type: in vivo; conditions: relative to PGE1 = 1
Method: (ii) hypotensive activity in dogs and
(ii) Hypotensive activity was measured in the anesthetized dog by intravenous administration, and as active control, PGE1 was used.

[2] = tested on: blood platelet aggregation induced by ADP; assay: inhibitory activity of blood platelet aggregation induced by ADP in rats; assay type: cell-based, rat; conditions: relative to PGE1 = 1
From the text: (iii) inhibitory activity of blood platelet aggregation induced by ADP in rats. The experimental methods are described hereinafter.
(iii) The concentrations required to inhibit blood platelet aggregation induced in rats by ADP (adenosine diphosphate) are shown relative to PGE1.

[3] = toxicity (LD50) by intravenous administration in mice; conditions: mouse, in vivo

| Structure (SMILES) | Inhibiting activity of blood platelet aggregation (PGE1 = 1) [2] | minimal effective dose [1] [mg/kg] | activity in the inhibition of liver damage induced by carbon tetrachloride compared with compounds (d) and (e) [1] | Hypotensive activity (PGE1 = 1) (blood pressure) | LD50 [3] [mg/kg] |
| --- | --- | --- | --- | --- | --- |
| CCCC[C@H]1CC[C@H]([C@H](O)/C=C/[C@H]2[C@H](O)CC(=O)[C@@H]2CC(=O)CCCCC(=O)N[C@@H](CC(C)C)C(=O)O)C1 [1(b), N-[(13E)-(11α,15α,16S,18S)-6,9-dioxo-11,15-dihydroxy-16,18-ethano-20-ethylprost-13-en-1-oyl]-L-leucine] | 0.01 | < 0.01 | almost the same activity | 0.01 | 30 |
| CCCC[C@H]1CC[C@H]([C@H](O)/C=C/[C@H]2[C@H](O)CC(=O)[C@@H]2CC(=O)CCCCC(=O)N[C@@H](Cc2ccccc2)C(=O)O)C1 [Example 1, N-[(13E)-(11α,15α,16S,18S)-6,9-dioxo-11,15-dihydroxy-16,18-ethano-20-ethylprost-13-en-1-oyl]-L-phenylalanine] | 0.01 | < 0.01 | almost the same activity | 0.03 | 22 |
| CCCC[C@H](C)C[C@H](O)/C=C/[C@H]1[C@H](O)CC(=O)[C@@H]1CC(=O)CCCCC(=O)N[C@@H](Cc1ccccc1)C(=O)OC [Example 2(a), N[(13E)-(11α,15α,17S)6,9-dioxo-11,15-dihydroxy-17,20-dimethylprost-13-en-1-oyl]-L-phenylalanine methyl ester] | 0.0053 | 0.03 | almost the same activity | 0.014 | – |

The next lines start with results.

| Inhibiting activity of blood platelet aggregation (PGE1 = 1) [2] | Structure (SMILES) | minimal effective dose [1] [mg/kg] | activity in the inhibition of liver damage induced by carbon tetrachloride compared with compounds (d) and (e) [1] | Hypotensive activity (PGE1 = 1) (blood pressure) | LD50 [3] [mg/kg] |
| --- | --- | --- | --- | --- | --- |
| 68 | CCCCC(C)C[C@H](O)/C=C/[C@H]1[C@H](O)CC(=O)[C@@H]1CC(=O)CCCCC(=O)O (some centres unmarked) [(d), reference compound] | 0.03 | – | 21 | – |
| 506 | CCCC[C@H]1CC[C@H]([C@H](O)/C=C/[C@H]2[C@H](O)CC(=O)[C@@H]2CC(=O)CCCCC(=O)O)C1 [(e), reference compound] | 0.005 | – | 24.5 | – |

Reference: patent publication US4783480A, “6-keto-prostaglandin E1 derivatives” (Ono Pharmaceutical Co., Ltd., priority 1986, dated 1988)
